{"source": "patent US20170079966A1", "about": "“INHIBITION OF TUMOR CELL INTERACTIONS WITH THE MICROENVIRONMENT RESULTING IN A REDUCTION IN TUMOR GROWTH AND DISEASE PROGRESSION” (Deciphera Pharmaceuticals, LLC, priority 2014, published 2017)", "key": {"TIE2": {"target": "TIE2 (Homo sapiens, UniProt Q02763)", "sequence (Q02763 23-1124)": "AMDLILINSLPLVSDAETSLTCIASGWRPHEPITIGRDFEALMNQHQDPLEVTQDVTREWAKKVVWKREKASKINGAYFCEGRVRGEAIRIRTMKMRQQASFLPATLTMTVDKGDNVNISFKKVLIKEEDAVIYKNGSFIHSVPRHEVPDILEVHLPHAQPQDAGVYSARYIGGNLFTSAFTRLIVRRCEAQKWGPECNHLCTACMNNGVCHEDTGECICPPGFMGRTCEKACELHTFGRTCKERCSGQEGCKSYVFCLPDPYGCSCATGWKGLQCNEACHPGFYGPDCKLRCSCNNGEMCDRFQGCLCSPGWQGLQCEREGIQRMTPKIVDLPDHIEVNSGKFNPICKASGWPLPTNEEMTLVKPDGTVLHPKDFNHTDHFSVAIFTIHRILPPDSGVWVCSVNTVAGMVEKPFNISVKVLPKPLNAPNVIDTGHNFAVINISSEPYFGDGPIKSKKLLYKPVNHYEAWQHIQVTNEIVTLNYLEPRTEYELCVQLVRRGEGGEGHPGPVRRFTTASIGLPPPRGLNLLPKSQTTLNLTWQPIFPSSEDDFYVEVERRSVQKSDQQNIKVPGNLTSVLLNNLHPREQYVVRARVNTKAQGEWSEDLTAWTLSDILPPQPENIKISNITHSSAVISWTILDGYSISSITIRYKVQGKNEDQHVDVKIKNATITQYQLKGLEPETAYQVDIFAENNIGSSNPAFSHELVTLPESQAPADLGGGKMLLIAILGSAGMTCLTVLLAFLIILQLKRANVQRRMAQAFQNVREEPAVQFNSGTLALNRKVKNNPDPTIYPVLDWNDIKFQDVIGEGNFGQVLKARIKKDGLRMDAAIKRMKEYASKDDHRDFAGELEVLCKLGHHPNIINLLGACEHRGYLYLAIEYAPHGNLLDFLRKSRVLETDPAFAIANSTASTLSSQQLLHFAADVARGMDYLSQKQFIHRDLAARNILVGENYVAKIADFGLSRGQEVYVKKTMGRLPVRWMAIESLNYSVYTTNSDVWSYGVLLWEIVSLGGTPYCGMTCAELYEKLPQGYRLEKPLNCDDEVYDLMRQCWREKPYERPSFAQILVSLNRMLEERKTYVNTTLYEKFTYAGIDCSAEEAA", "experiment": "HUVEC Phospho-TIE2 Western Blot Assay", "type": "cell-based", "set-up": "host or cells: HUVEC", "conditions": "4 hours compound; 800 ng/mL ANG1 complex 15 minutes; read-out: IC50, ANG1-stimulated phospho-TIE2 in HUVECs", "experimental": "HUVEC cells (2.5×10^5 cells/well) were added to a 24-well tissue-culture treated plate in 1 mL of EGM-2 culture medium (Lonza, Walkersville, Md.). Cells were then incubated overnight at 37 degrees Celsius, 5% CO2, and 95% humidity. Media was then aspirated and 1 mL EBM-2 basal medium (Lonza, Walkersville, Md.) supplemented with 2% FBS (Invitrogen, Carlsbad, Calif.) was added. […] The plates were then incubated for 4 hours at 37 degrees Celsius, 5% CO2, and 95% humidity. During the incubation, histidine-tagged angiopoietin 1 (ANG1) growth factor (R&D Systems, Minneapolis, Minn.) was added to an anti-polyhistidine antibody (R&D Systems, Minneapolis, Minn.) for 30 minutes at room temperature to generate multimers of ANG1. […] The media was aspirated and the cells were washed with PBS. The cells were lysed using MPER lysis buffer (Pierce, Rockford, Ill.) containing Halt Phosphatase and Protease Inhibitors (Pierce, Rockford, Ill.) and Phosphatase inhibitor cocktail 2 (Sigma, St. Louis, Mo.) at 4° C. for 10 minutes with shaking. […] Fluorescence was detected using a Storm 840 phosphorimager (GE Healthcare, Piscataway, N.J.) in fluorescence mode. The 160 kDa phospho-TIE2 band was quantified using ImageQuant software (GE Healthcare, Piscataway, N.J.). Data was analyzed using Prism software (GraphPad Software, San Diego, Calif.) to calculate the IC50 value."}, "B16/F10 cells": {"system": "B16/F10 cells", "experiment": "B16/F10 metastatic melanoma model", "conditions": "Compound 1 15 mg/kg"}, "[1]": {"system": "circulating TIE2+ and TIE2+/MET+ monocytes", "experiment": "Flow cytometry of circulating TIE2/MET-expressing monocytes from U87-MG xenograft model", "type": "in vivo, mice", "conditions": "single agents; after five weeks of treatment", "experimental": "Flow cytometry of circulating TIE2/MET-expressing monocytes from U87-MG xenograft model. Peripheral blood samples were fixed using Lyse/Fix buffer (BD Biosciences, San Jose, Calif.). BD Fc Block was added and cells were stained with CD11b-PECy7 and Gr1-APC antibodies (BD Pharmingen), and TIE2-PE and MET-FITC antibodies (eBioscience) or isotype controls. Data was collected on an Accuri C6 cytometer. Monocytes were gated using side and forward scatter.\nTo monitor these monocytes in the U87 survival model, peripheral monocytes were gated on CD11b+/Grl-surface markers and TIE2^+ and/or TIE2^+/MET^+ cells quantitated. In the U87 glioma survival study, we observed both of these TIE2^+ expressing monocyte populations in the circulation of vehicle-treated mice after five weeks of treatment. […] The lowered population of both of these TIE2^+ monocyte populations in the combination cohort was consistent with greater survival benefit (FIG. 6)."}, "[2]": {"system": "macrophage-mediated intravasation of human breast cancer cells (MDA-MB 231-GFP)", "experiment": "In vitro intravasation-directed transendothelial migration (iTEM) assay", "type": "cell-based", "conditions": "BAC1.2F5 macrophages, HUVEC monolayer", "experimental": "In vitro intravasation-directed transendothelial migration (iTEM) assay protocol. The iTEM assay was performed in a Transwell two-chamber apparatus. The Transwell was prepared so that tumor cell transendothelial migration of tumor cells was in the intravasation direction (from subluminal side to luminal side of the endothelium). We define this as the iTEM assay. To prepare the endothelial monolayer, the underside of each Transwell was coated with 50 μl of Matrigel (2.5 μg/ml; Invitrogen). About 100,000 HUVEC cells were plated on the Matrigel-coated underside of the Transwells. Transwells were then flipped onto a 24-well plate containing 200 μl of α-MEM (minimum essential medium) supplemented with 10% fetal bovine serum (FBS)+3000 U of CSF-1 and incubated until the endothelium formed impermeable monolayers. […] Once impermeable by these criteria, the Transwell assay was used for iTEM studies. All the assays were run in the presence of BAC1.2F5 murine macrophage cell line and MDA-MB 231-GFP human breast cancer cells. Transwells were imaged using a Leica SP5 confocal microscope using a 60×1.4 numerical aperture objective and processed using ImageJ [National Institutes of Health (NIH)] and IMAMS programs. Quantitation was performed by counting the number of tumor cells that had crossed the endothelium within the same field of view (60×, 10 random fields)."}}, "note": "Read-outs that look alike come from different tables or passages of the source.", "data": [{"compound": "O=C(Nc1cc(Oc2cc(F)c(NC(=O)C3(C(=O)Nc4ccc(F)cc4)CC3)cc2F)ccn1)C1CC1", "note": "[Compound 1, N-(4-(2-(cyclopropanecarboxamido)pyridin-4-yloxy)-2,5-difluorophenyl)-N′-(4-fluorophenyl)cyclopropane-1,1-dicarboxamide]", "values": [{"measurement": "IC50", "setting": "TIE2", "value": 1, "unit": "nM"}, {"measurement": "T-C", "setting": "B16/F10 cells", "value": "> 4.3", "unit": "days"}, {"measurement": "Treated animals with metastases on Day 21 (ex vivo BLI)", "setting": "B16/F10 cells; 2/12 animals", "value": 16.6, "unit": "%"}, {"measurement": "Inhibition of the development of pulmonary metastases", "setting": "B16/F10 cells; Day 21", "value": 72, "unit": "%"}, {"measurement": "% T/C, tumor growth on Day 21", "setting": "B16/F10 cells; treatment from Day 0", "value": 30, "unit": "%"}, {"measurement": "Day 22 % T/C", "setting": "A375; 10 mg/kg, orally, BID", "value": 47, "unit": "%"}, {"measurement": "Median tumor growth delay", "setting": "A375; 10 mg/kg, orally, BID", "value": "> 12.4", "unit": "days"}, {"measurement": "Day 22 % T/C", "setting": "A375; 20 mg/kg, orally, QD", "value": 33, "unit": "%"}, {"measurement": "Tumor growth delay", "setting": "A375; 20 mg/kg, orally, QD", "value": 15.7, "unit": "days"}, {"measurement": "CD31+ microvessel area in tumor sections at the end of study", "setting": "A375; mouse, in vivo", "value": "significant decreases"}, {"measurement": "Numbers of circulating TIE2+ and TIE2+/MET+ monocyte populations", "setting": "[1]", "value": "did not alter"}, {"measurement": "IC50", "setting": "[2]", "value": "< 10", "unit": "nM"}]}]}
